Reference: PubChem BioAssay (NCI)
Several values for one entry are separate records, joined by “and”; a condition that tells them apart may be missing. Equal values may be shown once.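 Exposure lasted 48 hours, with cells grown in 96-well plates and compounds tested at five concentrations. GI50 = concentration required for 50% inhibition of growth. The concentration for full growth arrest is given as TGI.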

These compounds were tested on MDA-MB-468 breast (assay: growth of human tumour cells (NCI), 48 h).
Work on `CCN(CC)c1ccc(/C=N/NC(=O)c2ccc(S(N)(=O)=O)cc2)cc1` yielded a GI50 of 0.376 µM and a TGI of 3.66 µM. `CC/C=C\C[C@H](O)C/C=C1/C(=O)C=C[C@@H]1C/C=C\CCCC(=O)NC(C)C` gave a GI50 of 1.67 µM and a TGI of 3.89 µM. For `Cc1ccc(S(=O)ON2CCC(C(=O)O)(c3ccccc3)CC2)cc1` (configuration not stated), the GI50 was > 100 µM and the TGI was > 100 µM. `C=C1C(=O)O[C@H]2[C@H]1CC/C(COC(=O)C(=O)c1c[nH]c3ccccc13)=C\CC[C@@]1(C)O[C@@H]21` was tested, and the GI50 was 1.98 µM and the TGI was 3.84 µM. `COc1ccc(C(=O)Cn2c(C(=O)c3ccc(Cl)cc3)nc3ccccc32)cc1` was tested, and the GI50 was 6.13 µM and the TGI was > 100 µM. Compound `O=C(Nc1ccc(S(=O)(=O)Nc2nccs2)cc1)c1cccnc1Nc1cccc(Cl)c1` has a GI50 of 13.9 µM and a TGI of 52.2 µM. In the case of `CCn1c(=O)c(-c2ccn[nH]2)cc2c(C)nc(N)nc21`, the GI50 is reported as 0.861 µM and the TGI is reported as 6.25 µM. In the case of `CC(C)C[C@@H](NC(=O)[C@@H](Cc1ccccc1)NC(=O)c1cnccn1)B1O[C@H]2[C@H](O)[C@@H](C(=O)NCCCC[C@@H]3NC(=O)[C@@H](Cc4ccccc4)NC(=O)[C@H](CC(=O)O)NC(=O)CNC(=O)[C@H](CCCN=C(N)N)NC3=O)O[C@@H](CN)[C@H]2O1`, the GI50 is reported as 0.00293 µM and 0.005 µM and the TGI is reported as 0.00906 µM and 0.00535 µM. For `N#CC1=C(N)Oc2cc3c(cc2C1c1cccs1)OCO3` (configuration not stated), the GI50 was 0.219 µM and the TGI was 3.03 µM. `Oc1c(CN2CCC(N3CCOCC3)CC2)cc(Cc2cc(CN3CCC(N4CCOCC4)CC3)c(O)c3ncccc23)c2cccnc12` was tested, and the GI50 was 1.7 µM and the TGI was 6.6 µM. In the case of `Cn1ccnc1C(=O)/C=C/c1ccc(CC(=O)Nc2ccc(Cl)cc2)cc1`, the GI50 is reported as 1.03 µM and the TGI is reported as 11.3 µM. `O=C1/C(=C/c2cccc([N+](=O)[O-])c2)COc2ccc(O)c(O)c21` was tested, and the GI50 was 1.33 µM and the TGI was 3.12 µM. With `O=[N+]([O-])c1cnc(Sc2ccncn2)c([N+](=O)[O-])c1` the GI50 was 1.72 µM and the TGI was 3.55 µM. `Cn1c(C(N)=O)cc2c1-c1nc(Nc3ccccc3)ncc1CCC2` was tested, and the GI50 was 3.52 µM and the TGI was 15 µM. With `CCN1C(=O)C/C(=C\C(C)=O)Nc2ccccc21` the GI50 was > 100 µM and the TGI was > 100 µM. Compound `Nc1c(C(=O)Nc2ccccc2)sc2nc3c(cc12)CCCCCC3` has a GI50 of 0.312 µM and a TGI of 3.73 µM. In the case of `CS(=O)(=O)c1ccc(Oc2cc(F)cc(C#N)c2)c2c1[C@H](O)[C@H](F)[C@@H]2F`, the GI50 is reported as > 100 µM and the TGI is reported as > 100 µM. For `COc1ccc(C(=O)Cn2c(C(=O)c3ccc(OC)cc3)nc3ccccc32)cc1`, the GI50 was 0.431 µM and the TGI was > 22.8 µM. With `CCNC(=O)C[C@@H]1N=C(c2ccc(Cl)cc2)c2cc(OC)ccc2-n2c(C)nnc21` the GI50 was 2.88 µM and the TGI was > 100 µM. Compound `O=[N+]([O-])c1ccc(N2CCN(Cc3ccccc3)CC2)c2c1no[n+]2[O-]` has a GI50 of 1.12 µM and a TGI of 2.68 µM. Compound `CCc1ccc(-c2nnc(COc3ccc(-c4nc5ccc(C)cc5[nH]4)cc3OC)o2)cc1` has a GI50 of 3.26 µM and a TGI of 16.3 µM. With `CCCCCCCCCCCCN1C(C)=CS/C1=C\C=C\c1scc(C)[n+]1CCCCCCCCCCCC` the GI50 was 0.251 µM and the TGI was 1.39 µM. For `COC(=O)/C=C/c1cc(O)c2c(c1)C(C(=O)OC)C(c1ccc(O)c(O)c1)O2` (configuration not stated), the GI50 was 0.521 µM and 0.646 µM and the TGI was 9.94 µM and 11.3 µM. In the case of `OC(c1cc2cc(Br)ccc2c2cc(Br)ccc12)C1CCCCN1` (configuration not stated), the GI50 is reported as 1.63 µM and the TGI is reported as 3.08 µM. With `O=C(/C=C/c1ccco1)c1ccc(Nc2nc(Nc3ccc(F)cc3)nc(Nc3ccc(Cl)cc3)n2)cc1` the GI50 was 22.8 µM and the TGI was > 100 µM. In the case of `O=C(Nc1ccc(Cl)c([N+](=O)[O-])c1)Nc1nc2ccccc2s1`, the GI50 is reported as 3.53 µM and the TGI is reported as 9.76 µM. `COc1cc(/C=C(/C)[N+](=O)[O-])ccc1O` was tested, and the GI50 was 1.58 µM and 1.78 µM and the TGI was 3.2 µM and 3.62 µM. `O=C(Nc1ccc(-c2nc3cc4ccccc4cc3[nH]2)cc1)c1cccc(Br)c1` gave a GI50 of 2.41 µM and a TGI of 6.54 µM. For `COc1cccc(-c2nn(-c3ccccc3)cc2-c2ccnc(NCCNS(=O)(=O)c3ccc(Cl)cc3)c2)c1`, the GI50 was 3.9 µM and the TGI was 64.6 µM. For `CC(C)C[C@H](NC(=O)[C@H](Cc1ccccc1)n1ccc(N2CCCCC2)cc1=O)B(O)O`, the GI50 was 0.264 µM and the TGI was 0.745 µM. Compound `CC(C)(C)Nc1nc2c(OCCc3ccccc3)cccn2c1-c1ccccc1Cl` has a GI50 of 2.5 µM and a TGI of 9.17 µM. With `CC(=O)Oc1ccccc1C(=O)Nc1ccc(C(=O)/C=C/c2ccncc2)cc1` the GI50 was 22.3 µM and the TGI was 98 µM. `COc1ccc(CN2C(=O)/C(=C\c3cc(OC)c(OC)c(OC)c3)c3cc(OC)ccc32)cc1` showed a GI50 of 1.94 µM and a TGI of 4.52 µM. `CNc1ccccc1C(=O)N/N=C/C=C/c1ccccc1` showed a GI50 of 0.503 µM and a TGI of 15.1 µM. `Cc1ccc(Nc2nc(NCCO)c3ccccc3n2)cc1C` showed a GI50 of 0.402 µM and a TGI of 3.13 µM. `CN1CCN(Cc2ccc(-c3cc4ncnc(Nc5ccc(OCc6cccc(F)c6)c(Cl)c5)c4s3)o2)CC1` showed a GI50 of 0.292 µM and a TGI of 3.22 µM.
